Laboratory results taken from PMC7055211 (Scientific Reports, 2020).
pEC50: −log10 of the molar value. “Also recorded” adds a separate entry of the source. Where two headings read alike, the source gives them in different places.

What was measured:
[1] = test system: EBOV (Zaire); assay: microbe, parasite or virus in culture; type: cell-based, Ebola virus
[2] = test system: HIV-1; assay: microbe, parasite or virus in culture; type: cell-based; conditions: for pEC50: Human immunodeficiency virus 1, HEK-293T
[3] = test system: pseudotyped virus using the EBOV Env (G) protein; conditions: cited from earlier work
[4] = WST-1 cellular metabolism measurement for the five prazoles (CC50); type: cell-based; conditions: human, 293 T cells, 50% metabolic activity of control, WST reagent, read-out: Cytotoxicity (CC50)
[5] = Prazole degradation rate: prodrug remaining in pH 5.8 buffer by 1D proton NMR; conditions: for prodrug remaining at 17 hours: 1D proton NMR
[6] = test system: EBV; type: cell-based, Epstein Barr virus; conditions: CLIX-FZ; for Virus Production (resistant or susceptible), EBV: BALF5
[7] = test system: HIV-1 Gag-HA VLP; type: cell-based
[8] = in vitro; conditions: human
[9] = test system: DENV 2 strain 16681; type: cell-based, Dengue virus type 2
[10] = test system: MAYV TRVL 15537; type: cell-based, Mayaro virus
[11] = test system: ZIKV PRVABC59; type: cell-based, Zika virus
[12] = test system: Mahoney strain of poliovirus; type: cell-based, Poliovirus Type I Mahoney; conditions: 293 T cells, up to 100 μM, plaque assay
[13] = in vitro; conditions: human; remark: listed apart in the source
[14] = test system: CLIX-FZ cells; assay: WST-1 metabolic activity of CLIX-FZ cells; type: cell-based; conditions: 40 μM concentration range, WST-1, 24 hr
Protocol: Figure 4 EBV replication is tenatoprazole-sensitive. Latent EBV was reactivated in CLIX-FZ cells by addition of doxycycline in the presence of DMSO (black bars) or DMSO plus tenatoprazole (20 µM or 40 µM, grey bars); non-treated cells are shown as white bars. After 72 hr, cells and conditioned media were harvested. Panel A, extracellular EBV DNA measured in pellet fraction of conditioned media. Panel B, intracellular EBV DNA measured in lysed cells. EBV DNA was determined by quantitative-PCR (qPCR) for the EBV BALF5 gene. EBV DNA copy number from each preparation was normalized to the DMSO-treated control. Panel C, metabolic activity of cells in the presence of tenatoprazole. The cells were grown for 24 hr in media containing the indicated concentrations of doxycycline and tenatoprazole followed by assessment of metabolic activity assessed using the WST-1 assay. Panel D, fractionation of intracellular DNA. […] DNA was extracted from each fraction and the relative number of EBV genomes from each fraction was determined by qPCR using primers directed towards the EBV BALF5 gene. […]
Metabolic activity of the cells in the presence of the prazole drugs for 24 hr was assessed using the WST-1 assay (Roche Applied Science) following the manufacturer's protocol.

[15] = test system: HIV-1 P7L-Gag (disrupted PTAP motif); type: cell-based
[16] = target: T1, Tsg101 UEV domain (Homo sapiens, UniProt Q99816); assay: NMR chemical shift perturbations of Tsg101 UEV domain complexed with prazoles; type: binding; conditions: 15N-Tsg101 UEV, pH 5.8, 300 K
T1 construct: purified ^15N-labeled Tsg101 UEV domain protein complexed to various prazoles; made in house
T1 sequence (Q99816 2-145 limits assumed): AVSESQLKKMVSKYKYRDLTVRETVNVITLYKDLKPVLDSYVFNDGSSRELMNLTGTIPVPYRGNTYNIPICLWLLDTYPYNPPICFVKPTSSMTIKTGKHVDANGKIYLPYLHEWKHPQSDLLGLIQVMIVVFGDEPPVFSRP

[17] = in vitro; conditions: human; remark: listed apart in the source
[18] = read-out: Approximate Effective Concentration (EC50)
[19] = read-out: EC50, inhibition of HIV-1 production
[20] = doxycycline, 20 µM and 40 μM, 72 hr, qPCR

Q: For `COc1ccc2nc([S@@+]([O-])Cc3ncc(C)c(OC)c3C)[nH]c2c1` [Esomeprazole, Esomeprazole magnesium hydrate], which “inhibitory effect on EBOV” value [1] is on record?
A: no significant inhibitory effect

Q: What about the “Selectivity Index (CC50/EC50)” value [2] of the same compound?
A: 1.0

Q: What about the pEC50 [2, 18] of the same compound?
A: 4.12

Q: What about the pEC50 [2, 19] of the same compound?
A: ~4.12

Q: What about the pEC50 [3] of the same compound?
A: 4.30

Q: And the CC50 at 24 h [4]?
A: 75 µM

Q: And the “prodrug remaining at 17 hours” value ([5]; 2 mM prazole, 300 K)?
A: ~ 55%

Q: Which results are given for `Cc1c(OCC(F)(F)F)ccnc1C[S+]([O-])c1nc2ccccc2[nH]1` (stereo not shown) [Lansoprazole, lansoprazole]?
A: Selectivity Index (CC50/EC50) ([2]; HIV-1, Table 3): 2.0; pEC50 [2, 18]: 4.60; pEC50 [2, 19]: ~4.60; CC50 at 24 h [4]: 50 µM; prodrug remaining at 17 hours ([5]; 2 mM prazole, 300 K): 20%

Q: For `COc1ccnc(C[S+]([O-])c2nc3ccc(OC(F)F)cc3[nH]2)c1OC` (stereo not shown) [Pantoprazole, pantoprazole sodium hydrate], which “inhibition of HIV-1 production (in words)” value [2] is on record?
A: negligible inhibitory activity

Q: What about the “Selectivity Index (CC50/EC50)” value ([2]; HIV-1, Table 3) of the same compound?
A: <0.5

Q: What about the pEC50 [2, 18] of the same compound?
A: < 4.12

Q: And the CC50 at 24 h [4]?
A: 40 µM

Q: What about the “prodrug remaining at 17 hours” value ([5]; 2 mM prazole, 300 K) of the same compound?
A: 96%

Q: With `COCCCOc1ccnc(C[S+]([O-])c2nc3ccccc3[nH]2)c1C` (stereo not shown) [Rabeprazole, rabeprazole sodium] as the compound, how does the “inhibition of HIV-1 production (in words)” value [2] read?
A: strongest inhibitory effect

Q: And the “Selectivity Index (CC50/EC50)” value ([2]; HIV-1, Table 3)?
A: 10

Q: What about the pEC50 [2, 18] of the same compound?
A: 4.82

Q: And the pEC50 [2, 19]?
A: ~4.82

Q: And the CC50 at 24 h [4]?
A: 150 µM

Q: What about the “time course of prodrug disappearance” value ([5]; 2 mM prazole, 300 K) of the same compound?
A: completely disappearing in less than ten hours

Q: With `COc1ccc2[nH]c([S+]([O-])Cc3ncc(C)c(OC)c3C)nc2n1` (stereo not shown) [Tenatoprazole, tenatoprazole] as the compound, how does the “Selectivity index (CC50/EC50), EBV” value [6] read?
A: ~4

Q: And the “intracellular EBV load” value [6, 20]?
A: increased

Q: And the “number of released (extracellular) EBV particles” value [6, 20]?
A: dose-dependent reduction

Q: What about the “Virus Production (resistant or susceptible), EBV” value ([6]; qPCR) of the same compound?
A: Susceptible

Q: And the “Virus Production (resistant or susceptible), EBV” value ([6]; qPCR, listed as tenatoprazole)?
A: sensitive

Q: And the “Gag accumulation in cell lysate” value [7]?
A: drug concentration-dependent decline in Gag accumulation

Q: What about the VLP production [7] of the same compound?
A: dose-dependent inhibition of VLP production

Q: What about the VLP release efficiency [7] of the same compound?
A: no change

Q: And the CC50 [8]?
A: 123 µM

Q: What about the “Selectivity index (CC50/EC50), EBOV” value [1] of the same compound?
A: Susceptible (1.6)

Q: What about the pEC50 ([1]; Zaire ebolavirus, HeLa, 24 h, read-out: EC50, inhibition of EBOV spread) of the same compound?
A: 4.10

Q: What about the “DENV replication, tenatoprazole susceptibility” value [9] of the same compound?
A: no tenatoprazole susceptibility

Q: What about the “Virus Production (resistant or susceptible), DENV” value ([9]; 293 T, infectivity, FFU) of the same compound?
A: Resistant

Q: And the “Virus Production (resistant or susceptible), HIV-1” value [2]?
A: sensitive

Q: What about the “Selectivity Index (CC50/EC50)” value ([2]; HIV-1, Table 3) of the same compound?
A: 2.5

Q: And the pEC50 [2, 18]?
A: 4.30

Q: And the pEC50 [2, 19]?
A: ~4.30

Q: What about the “Virus Production (resistant or susceptible), MAYV” value [10] of the same compound?
A: sensitive; also recorded: Susceptible (2.5)

Q: And the “reduction of MAYV titer” value [10]?
A: > 2 log10

Q: What about the “Selectivity index (CC50/EC50), MAYV” value ([10]; 293 T) of the same compound?
A: Susceptible (2.5)

Q: And the “reduction in ZIKV infectious virus output” value [11]?
A: < 2 fold

Q: And the “Virus Production (resistant or susceptible), ZIKV” value ([11]; 293 T, infectivity, PFU)?
A: Resistant

Q: What about the PV tenatoprazole susceptibility [12] of the same compound?
A: no tenatoprazole susceptibility

Q: What about the CC50 at 24 h [4] of the same compound?
A: 125 µM

Q: What about the “prodrug remaining at 17 hours” value ([5]; 2 mM prazole, 300 K) of the same compound?
A: ~ 5%

Q: What about the viability at 80 µM [13] of the same compound?
A: > 80%

Q: And the “metabolic capacity of host CLIX-FZ cells” value [14]?
A: some impairment of metabolic capacity

Q: And the “Alix rescue of P7L-Gag release in presence of tenatoprazole” value ([15]; 293T, concentration range to which the WT is susceptible)?
A: 2–3 fold

Q: What about the “Alix-mediated stimulation of p25 to p24 maturation” value ([15]; in the presence or absence of the drug) of the same compound?
A: ~ 3 fold

Q: What about the “chemical shift change of backbone amide of S41” value [16] of the same compound?
A: 0.29 ppm

Q: And the CC50 [17]?
A: 129 µM

Q: With `Cc1c(OCC(F)(F)F)ccnc1C[S@@+]([O-])c1nc2ccccc2[nH]1` [dexlansoprazole] as the compound, how does the “conversion rate, dexlansoprazole compared with lansoprazole” value ([5]; Supplemental Fig. 3A) read?
A: no significant difference in rates
